Experimental data as given in patent US20080206761A1, “Ex Vivo Gene Expression in Whole Blood as a Model of Assessment of Individual Variation to Dietary Supplements” (priority 2005, published 2008).

Tested on: TNFSF15 mRNA
Test: TNFSF15 mRNA in whole blood after dietary component and heat-aggregated IgG stimulation
Format: cell-based, human
Experimental: The mRNA and cDNA were prepared from the whole blood that was exposed to the dietary components, as well as the whole blood which remained unexposed. In brief, home-made 96-well filterplates were placed over collection plates, and 150 μl 5 mM Tris, pH 7.4, was applied. Following centrifugation at 120×g for 1 min at 4° C., 50 μl of blood samples were applied to each well and immediately centrifuged at 120×g for 2 min at 4° C., followed by washing of each well with 300 μl PBS once with centrifugation at 2000×g for 5 min at 4° C. Then, 60 μl stock lysis buffer, containing for example 0.5% N-Lauroylsarcosine, 4×SSC, 10 mM Tris HCl, pH 7.4, 1 mM EDTA, 0.1% IGEPAL CA-630, and 1.791 M guanidine thiocyanate, supplemented with 1% 2-mercaptoethanol (Bio Rad, Hercules, Calif., USA), 0.5 mg/ml proteinase K (Pierce, Rockford, Ill., USA), 0.1 mg/ml salmon sperm DNA (5 Prime Eppendorf/Brinkmann, Westbury, N.Y., USA), 0.1 mg/ml E. coli tRNA (Sigma), a cocktail of 10 mM each of the specific reverse primers shown in Table 2, and standard RNA34 oligonucleotides, were applied to the filterplates, followed by incubation at 37° C. for 10 min. The filterplates were then placed over oligo(dT)-immobilized microplates (GenePlate, RNAture), and centrifuged at 2000×g for 5 min at 4° C. Following overnight storage at 4° C., the microplates were washed with 100 μl plain lysis buffer 3 times, followed by 150 μl of wash buffer (0.5 M NaCl, 10 mM Tris, pH 7.4, 1 mM EDTA) 3 times at 4° C. […] The Ct was determined by analytical software (SDS, ABI).
In this embodiment, heparinized whole blood of two individuals was pre-incubated with various dietary supplements at 37° C. for 30 minutes (at the same blood concentrations as in Embodiment 2), then stimulated with 1.2 μL of heat-aggregated IgG. […] The level of TNFSF3 and TNFSF15 mRNA was then assessed using the method described in Embodiment 1, with the exception that SYBR Green PCR was used to quantitate the mRNA. […]

CC1=C(/C=C/C(C)=C/C=C/C(C)=C/CO)C(C)(C)CCC1 [VA, vitamin A]
effect on HAG-induced TNFSF15 expression, in words (FIG. 6, two cases, vitamin A 100 nmol/L): eliminated the effect on HAG in one case (case 1)
baseline expression of TNFSF15, in words (FIG. 6, vitamin A 100 nmol/L): decreased the baseline expression of TNFSF-15
effect on HAG-induced TNFSF15 expression, in words (FIG. 7 follow-up, seven cases overall, vitamin A only): exhibited an inhibitory action on HAG-induced TNFSF15 expression in case 1, and in two of seven cases overall
